We go through 22 compounds from ChEMBL document CHEMBL1201862, “PubChem BioAssay data set” (2004).

Test systems include DLD-1; DMS-114; HOP-18; KM-20L2; LXFL 529; M19-MEL; XF498; DMS-273; SNB-78.
Holding throughout (test): DTP human tumour cell line panel, 48 h

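Assay format: 96-well plates, 48-hour exposure. GI50 = concentration required for 50% inhibition of growth.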 Active and inactive are the calls of the source. Rule as the data show it: active = GI50 up to about 1.1 µM and inactive = higher.

The term GI50 denotes the concentration at which growth is held to half of that of the control. Turning to `CCCCCCCCCCCCCC(=O)OCC1OC(=O)C(O)C1O` (stereo not given), the GI50 with DLD-1, in the assay with DMS-114, with HOP-18, with KM-20L2, in the assay with LXFL 529 and in the assay with M19-MEL was > 100 µM (inactive) throughout. In addition, the GI50 in the assay with XF498 is > 100 µM (inactive).

In the case of `CC(C)N(C(=O)C1(C)CC1)C(C)C`, the GI50 with DLD-1, in the assay with DMS-114, in the assay with DMS-273, with HOP-18, in the assay with KM-20L2 and in the assay with LXFL 529 was > 100 µM (inactive) in each case. The GI50 in the assay with M19-MEL, with SNB-78 and in the assay with XF498 was > 100 µM (inactive) in each case.

Take `COc1cc(OC)cc(C(=O)Cc2c(C(=O)c3ccccc3)c3ccccc3n2C(=O)c2ccccc2)c1`: the GI50 with DLD-1 was 20.3 µM (inactive); in the assay on DMS-114, 15.5 µM (inactive); with DMS-273, 27.4 µM (inactive); with KM-20L2, 50.6 µM (inactive); in the assay with LXFL 529 it was 9.95 µM (inactive); with M19-MEL, 32 µM (inactive). For the same compound, the GI50 in the assay on SNB-78 is 38.3 µM (inactive); in the assay on XF498, 21.4 µM (inactive).

As for `Nc1nc(-c2ccccc2)cc(-c2cc(Cl)ccc2O)n1`, the GI50 in the assay on DLD-1 was 98.2 µM (inactive); in the assay on DMS-114 it was 55.6 µM (inactive); with DMS-273 it was 44.7 µM (inactive); in the assay with HOP-18 it was > 100 µM (inactive); in the assay on KM-20L2, > 100 µM (inactive); in the assay with LXFL 529, 48.3 µM (inactive). Also, the GI50 in the assay on SNB-78 is > 100 µM (inactive).

As for `COc1ccc(/C=C(\Cl)c2ccc(OC)cc2)cc1`, the GI50 in the assay on DLD-1, with DMS-114, with DMS-273, with KM-20L2, in the assay on LXFL 529 and in the assay on M19-MEL was > 100 µM (inactive) in each case.

`COc1ccc(CCCN2c3ccccc3Sc3ccccc32)cc1`: the GI50 with DLD-1 was > 100 µM (inactive); with DMS-114, 28.1 µM (inactive); in the assay with DMS-273 it was 33.5 µM (inactive); in the assay on HOP-18, > 100 µM (inactive); in the assay on KM-20L2, 53.8 µM (inactive); in the assay with LXFL 529 it was 73.1 µM (inactive). For the same compound, the GI50 is 91.8 µM (inactive) in the assay with SNB-78 and > 100 µM (inactive) in the assay with XF498.

In the case of `COC(=O)CC(=O)NCC1=CCC(=O)CC1`, the GI50 with DLD-1, in the assay with DMS-114, in the assay with DMS-273, in the assay on LXFL 529, with M19-MEL and in the assay on SNB-78 was > 100 µM (inactive) throughout. Further, the GI50 with XF498 is > 100 µM (inactive).

Regarding `CCOc1ccc(/N=N/c2c(-c3ccccc3)nn(C(=O)CC(=O)Nc3cccc(C)c3)c2-c2ccccc2)cc1`, the GI50 with DLD-1 is 63.2 µM (inactive); in the assay with DMS-114, 30.4 µM (inactive); in the assay with DMS-273, > 100 µM (inactive); in the assay on HOP-18 it was > 100 µM (inactive); in the assay on KM-20L2 it was 85.5 µM (inactive); with LXFL 529, > 100 µM (inactive). In addition, the GI50 in the assay on SNB-78 is > 100 µM (inactive); in the assay on XF498, 95.1 µM (inactive).

With `Clc1ccc2c(c1)[nH]c1c2nc2sccn21`, the GI50 with DLD-1, in the assay with DMS-114, in the assay on DMS-273, in the assay with HOP-18, in the assay with KM-20L2 and with LXFL 529 was > 100 µM (inactive) throughout. Besides, the GI50 with M19-MEL, with SNB-78 and in the assay with XF498 was > 100 µM (inactive) in each case.

As to `N#Cc1ccc(C2OCC3CC=CCC3CO2)cc1` (stereo not given), the GI50 in the assay on DLD-1 is 55 µM (inactive); in the assay with DMS-114, 61.7 µM (inactive); in the assay with HOP-18, > 100 µM (inactive); with KM-20L2 it was > 100 µM (inactive); in the assay with LXFL 529, 47.1 µM (inactive); in the assay on M19-MEL it was 84.7 µM (inactive). For the same compound, the GI50 in the assay with SNB-78 and with XF498 was > 100 µM (inactive) each time.

For `C[P+]1(Cc2ccccc2)CCCC1`, the GI50 is > 100 µM (inactive) in the assay with DLD-1; > 100 µM (inactive) in the assay on DMS-114; > 100 µM (inactive) in the assay on DMS-273; 63.7 µM (inactive) with HOP-18; > 100 µM (inactive) in the assay with KM-20L2; > 100 µM (inactive) in the assay on LXFL 529. Besides, the results for the GI50 with M19-MEL, in the assay with SNB-78 and in the assay with XF498 were > 100 µM (inactive), > 100 µM (inactive) and < 0.01 µM (active), respectively.

As for `O=C(COc1ccc(Cl)cc1)N1N=C(c2ccc(Cl)cc2)CC1(O)c1ccccc1` (stereo not given), the GI50 in the assay on DLD-1 was 13 µM (inactive); in the assay on DMS-114 it was 18.4 µM (inactive); with DMS-273, 15.9 µM (inactive); in the assay with HOP-18, 39.2 µM (inactive); in the assay with KM-20L2, 15.4 µM (inactive); in the assay with LXFL 529 it was 15 µM (inactive). Moreover, the GI50 is 24 µM (inactive) with M19-MEL, > 38.5 µM (inactive) with SNB-78 and 27.8 µM (inactive) in the assay with XF498.

`C[P+](C)(C)C`: the GI50 with DLD-1, with DMS-114, with HOP-18, in the assay with KM-20L2, with LXFL 529 and in the assay with M19-MEL was > 100 µM (inactive) in each case. For the same compound, the GI50 with SNB-78 and in the assay on XF498 was > 100 µM (inactive) each time.

Take `NC(=S)N/N=C(/CC(=O)c1ccc([N+](=O)[O-])cc1)C(=O)Nc1ncc([N+](=O)[O-])s1`: the GI50 was > 100 µM (inactive) in the assay with DLD-1; 68.1 µM (inactive) with DMS-114; > 100 µM (inactive) with KM-20L2; 92.5 µM (inactive) in the assay on LXFL 529; > 100 µM (inactive) with M19-MEL; > 100 µM (inactive) in the assay with SNB-78. For the same compound, the GI50 in the assay with XF498 was > 100 µM (inactive).

For `CC1=C[C@H]2C[C@@]3(C)O[C@@H]([C@]4(C)CC[C@H]([C@@H](C)C(=O)O)OO4)CC3C(C)(C)[C@H]2CC1` (stereo not given in full), the GI50 with DLD-1 was 0.916 µM (active); with DMS-114, 1.56 µM (inactive); with DMS-273, 0.526 µM (active); with KM-20L2, 2.17 µM (inactive); with LXFL 529 it was 0.612 µM (active); in the assay on M19-MEL, 1.67 µM (inactive). The GI50 in the assay on SNB-78 is 1.08 µM (active); with XF498 it was 0.0573 µM (active).

Take `C[N+]1=c2c3cccc4cccc(c(=O)n2CC1)c43`: the GI50 in the assay with DLD-1 is 16.1 µM (inactive); in the assay on DMS-114, 15.7 µM (inactive); in the assay on DMS-273 it was 12.4 µM (inactive); in the assay on HOP-18 it was 21.6 µM (inactive); in the assay with KM-20L2 it was 15.7 µM (inactive); with LXFL 529, 13.9 µM (inactive). For the same compound, the GI50 with M19-MEL is 17.3 µM (inactive); with SNB-78, 14.2 µM (inactive).

In the case of `O=C1C=CC(=O)N1Nc1ccc([N+](=O)[O-])cc1[N+](=O)[O-]`, the GI50 is > 100 µM (inactive) with DLD-1; > 100 µM (inactive) in the assay on DMS-114; > 100 µM (inactive) in the assay with DMS-273; > 100 µM (inactive) with KM-20L2; > 44.5 µM (inactive) with LXFL 529; > 89.7 µM (inactive) with M19-MEL. The GI50 with SNB-78 was > 100 µM (inactive).

On to `CC(C(=O)c1ccc(Cl)cc1)/C(=N/NC(=O)NN)C(=O)Nc1cccc(C(F)(F)F)c1` (stereo not given), for which the GI50 in the assay with DLD-1 is > 100 µM (inactive); in the assay with DMS-114 it was > 100 µM (inactive); in the assay on DMS-273, > 100 µM (inactive); with HOP-18, 56.5 µM (inactive); in the assay with KM-20L2 it was > 100 µM (inactive); with LXFL 529, > 100 µM (inactive). The GI50 with M19-MEL, in the assay with SNB-78 and with XF498 was > 100 µM (inactive) in each case.

Turning to `Cn1c2c(c3ccccc31)C1C(=O)N(c3ccccc3)C(=O)C1CC2` (stereo not given), the GI50 in the assay with DLD-1, with DMS-114, in the assay on DMS-273, with KM-20L2 and in the assay on LXFL 529 was > 303 µM (inactive) in each case.

As for `CC(=O)C1C(=O)NC(=O)C1=O` (stereo not given), the GI50 in the assay on DMS-114, with DMS-273, with HOP-18, in the assay with KM-20L2, in the assay with LXFL 529 and in the assay with M19-MEL was > 100 µM (inactive) in each case. For the same compound, the GI50 with SNB-78 and in the assay with XF498 was > 100 µM (inactive) throughout.

As for `O=C(O)c1cc(=O)c2c([nH]c3ccccc32)s1`, the GI50 in the assay with DLD-1, with DMS-114, in the assay on KM-20L2, in the assay with LXFL 529, in the assay on M19-MEL and with SNB-78 was > 100 µM (inactive) throughout. Also, the GI50 in the assay with XF498 is > 100 µM (inactive).

Regarding `CC(C)CN(CC(C)C)C(=O)C1CCCC[C@@H]1C(=O)O` (stereo not given in full), the GI50 in the assay on DLD-1, in the assay on DMS-114, in the assay with DMS-273, in the assay with HOP-18, with KM-20L2 and in the assay on LXFL 529 was > 100 µM (inactive) throughout. The GI50 in the assay with M19-MEL and in the assay with SNB-78 was > 100 µM (inactive) each time.
